Test results as given in US20230145835A1, “Modulators of Alpha-4-beta-7 Integrin and MAdCAM” (48HD Biopharma Inc., priority 2021, published 2023).
“And” between values parts separate entries of the source, which are not always exact repeats. Identical values can stand only once. Numbered stars: 1 amine (or outer) side, 2 acyl side, 3 side chain; on linkers, the order of the positions; unused ones are H or OH. Bridge positions count the residues as written; N and C are the ends. Square brackets hold non-standard residues; d marks the D form. Peptide text beside a SMILES is read from it. ξ: configuration not given here. X3 = O=C(/C=N/OCCCCCCOc1cc(C[*:2])cc(C[*:3])c1)[*:1]; X9 = NC(=O)[C@H](CS[*:1])CC(=O)[C@H](CCC(=O)O)N[*:2]; tBuAla = CC(C)(C)C[C@H](N)C(=O)O; Thr(3ξ) = CC(O)[C@H](N)C(=O)O; Nle = CCCC[C@H](N)C(=O)O

Molecular target: T1, rh-integrin α4β7/LPAM-1 (Homo sapiens, UniProt P13612+P26010)
T1 sequence (P13612 34-977 limits assumed): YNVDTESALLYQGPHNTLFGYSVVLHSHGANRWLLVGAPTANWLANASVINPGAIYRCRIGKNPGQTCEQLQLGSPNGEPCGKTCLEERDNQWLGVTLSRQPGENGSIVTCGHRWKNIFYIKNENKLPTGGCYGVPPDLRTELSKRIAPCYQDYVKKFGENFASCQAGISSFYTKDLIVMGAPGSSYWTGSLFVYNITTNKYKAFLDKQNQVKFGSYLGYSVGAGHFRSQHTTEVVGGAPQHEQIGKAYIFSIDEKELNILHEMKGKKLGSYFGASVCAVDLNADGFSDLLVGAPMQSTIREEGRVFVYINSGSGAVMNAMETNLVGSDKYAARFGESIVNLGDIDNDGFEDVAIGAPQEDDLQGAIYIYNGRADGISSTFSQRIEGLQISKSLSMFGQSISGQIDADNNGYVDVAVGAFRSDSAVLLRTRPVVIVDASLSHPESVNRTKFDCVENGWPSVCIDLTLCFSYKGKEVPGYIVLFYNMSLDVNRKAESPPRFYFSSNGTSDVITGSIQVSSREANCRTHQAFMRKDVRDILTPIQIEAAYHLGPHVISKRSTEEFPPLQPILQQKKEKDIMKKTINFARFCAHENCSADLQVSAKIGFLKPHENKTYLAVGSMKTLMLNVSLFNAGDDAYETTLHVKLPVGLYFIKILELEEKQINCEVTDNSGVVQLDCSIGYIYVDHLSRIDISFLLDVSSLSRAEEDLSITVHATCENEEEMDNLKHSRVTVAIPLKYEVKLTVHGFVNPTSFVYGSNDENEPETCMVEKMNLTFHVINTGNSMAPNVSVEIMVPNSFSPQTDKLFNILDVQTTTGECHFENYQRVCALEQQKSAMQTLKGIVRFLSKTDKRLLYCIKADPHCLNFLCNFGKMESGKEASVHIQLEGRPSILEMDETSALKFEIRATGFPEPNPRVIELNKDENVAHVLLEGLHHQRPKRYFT
T1 sequence (P26010 20-723 limits assumed): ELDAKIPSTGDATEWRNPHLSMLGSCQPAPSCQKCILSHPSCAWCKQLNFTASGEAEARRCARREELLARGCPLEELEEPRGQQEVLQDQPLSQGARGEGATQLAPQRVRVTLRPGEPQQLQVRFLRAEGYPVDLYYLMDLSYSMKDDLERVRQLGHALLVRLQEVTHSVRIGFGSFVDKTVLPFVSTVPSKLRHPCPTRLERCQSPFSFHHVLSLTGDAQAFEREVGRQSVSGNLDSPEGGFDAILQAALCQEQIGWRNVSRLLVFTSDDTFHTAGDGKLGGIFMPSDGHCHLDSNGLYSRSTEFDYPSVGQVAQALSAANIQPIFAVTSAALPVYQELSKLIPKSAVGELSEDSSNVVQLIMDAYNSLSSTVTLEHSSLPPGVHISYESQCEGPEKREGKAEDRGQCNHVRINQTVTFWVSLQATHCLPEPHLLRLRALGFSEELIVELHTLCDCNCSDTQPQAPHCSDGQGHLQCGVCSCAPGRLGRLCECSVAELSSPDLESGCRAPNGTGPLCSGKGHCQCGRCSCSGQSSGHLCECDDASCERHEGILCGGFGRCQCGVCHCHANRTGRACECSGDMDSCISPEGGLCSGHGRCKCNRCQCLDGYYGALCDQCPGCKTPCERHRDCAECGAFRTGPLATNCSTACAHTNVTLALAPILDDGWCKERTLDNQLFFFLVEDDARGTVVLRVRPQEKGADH
Test: α4β7-MadCAM Competition ELISA (Example 4)
Format: binding
Conditions: Table 3 Representative compounds; inhibition of MAdCAM binding to coated α4β7; read-out: IC50
Procedure: After washing with wash buffer, 200 μL assay buffer was added to each well and incubated for one hour at 28° C. After another wash with wash buffer, 100 μL of a MAdCAM and peptide mixture in assay buffer was added to each well and incubated for one hour at 28° C., followed by washing with wash buffer.

| Structure (SMILES) | IC50 |
| --- | --- |
| CC[C@H](C)[C@@H]1NC(=O)[C@H](CC(=O)O)NC(=O)[C@H](CCSC)NC(=O)[C@@H]2CCCN2C(=O)[C@@H]2CSCc3cc(cc(c3)OCCCCCCO/N=C/C(=O)N[C@@H](CCCNC(=N)N)C(=O)N2)CSC[C@@H](C(N)=O)NC(=O)[C@H](CCC(=O)O)NC(=O)[C@H](CCC(N)=O)NC(=O)[C@H](Cc2c[nH]c3ccccc23)NC1=O [compound 16] (RCPMDIWQEC-NH2; linker N-2-10 via X3) | 272 nM |
| CC[C@H](C)[C@@H]1NC(=O)[C@H](CC(=O)O)NC(=O)[C@H](CCSC)NC(=O)[C@@H]2CCCN2C(=O)[C@@H]2CSCc3cc(cc(c3)OCCCCCCO/N=C/C(=O)N[C@@H](CCCCN)C(=O)N2)CSC[C@@H](C(N)=O)NC(=O)[C@H]([C@@H](C)O)NC(=O)[C@@H]2CCCN2C1=O [compound 18] (KCPMDIPTC-NH2; linker N-2-9 via X3) | 345 nM |
| CC(C)C[C@@H]1NC(=O)[C@@H]2CCCN2C(=O)[C@@H]2CSCc3cc(cc(c3)OCCCCCCO/N=C/C(=O)N[C@@H](CCCCN)C(=O)N2)CSC[C@@H](C(N)=O)NC(=O)[C@H](CCC(=O)O)NC(=O)[C@H](Cc2ccc(O)cc2)NC(=O)[C@@H]2CCCN2C(=O)[C@H](CC(C)C)NC(=O)[C@H](CC(=O)O)NC1=O [compound 19] (KCPLDLPYEC-NH2; linker N-2-10 via X3) | 363 nM |
| CC[C@H](C)[C@@H]1NC(=O)[C@H](CC(=O)O)NC(=O)[C@H](CCSC)NC(=O)[C@@H]2CCCN2C(=O)[C@@H]2CSCc3cc(cc(c3)OCCCCCCO/N=C/C(=O)N[C@@H](CCCNC(=N)N)C(=O)N2)CSC[C@@H](C(N)=O)NC(=O)[C@H]([C@@H](C)O)NC(=O)[C@@H]2CCCN2C1=O [compound 20] (RCPMDIPTC-NH2; linker N-2-9 via X3) | 404 nM |
| CC(C)C[C@@H]1NC(=O)[C@@H]2CCCN2C(=O)[C@@H]2CSCc3cc(cc(c3)OCCCCCCO/N=C/C(=O)N[C@@H](CCCCN)C(=O)N2)CSC[C@@H](C(N)=O)NC(=O)[C@H](CCC(=O)O)NC(=O)[C@H](Cc2ccc(O)cc2)NC(=O)[C@@H]2CCCN2C(=O)[C@H]([C@@H](C)O)NC(=O)[C@H](CC(=O)O)NC1=O [compound 22, TSL6- SKCPLDTPYEC] (KCPLDTPYEC-NH2; linker N-2-10 via X3) | 495 nM and 940 nM |
| CSCC[C@@H]1NC(=O)[C@@H]2CCCN2C(=O)[C@@H]2CSCc3cc(cc(c3)OCCCCCCO/N=C/C(=O)N[C@@H](CCCNC(=N)N)C(=O)N2)CSC[C@@H](C(N)=O)NC(=O)[C@H](CCC(=O)O)NC(=O)CNC(=O)[C@H](C)NC(=O)[C@H](C(C)C)NC(=O)[C@H](CC(=O)O)NC1=O [compound 23, TSL6- SRCPMDVAGEC] (RCPMDVAGEC-NH2; linker N-2-10 via X3) | 511 nM |
| CC(C)C[C@@H]1NC(=O)[C@@H]2CCCN2C(=O)[C@@H]2CSCc3cc(cc(c3)OCCCCCCO/N=C/C(=O)N[C@@H](CCCCN)C(=O)N2)CSC[C@@H](C(N)=O)NC(=O)[C@H](C)NC(=O)[C@H](Cc2ccc(O)cc2)NC(=O)[C@@H]2CCCN2C(=O)[C@H]([C@@H](C)O)NC(=O)[C@H](CC(=O)O)NC1=O [compound 24, TSL6- SKCPLDTPYAC] (KCPLDTPYAC-NH2; linker N-2-10 via X3) | 517 nM |
| CC(C)C[C@@H]1NC(=O)[C@@H]2CCCN2C(=O)[C@@H](NC(=O)[C@H](CCCCN)NC(=O)[C@@H](N)CO)CSSC[C@@H](C(N)=O)CC(=O)[C@H](CCC(=O)O)NC(=O)[C@H](Cc2ccc(O)cc2)NC(=O)[C@@H]2CCCN2C(=O)[C@H](C(C)O)NC(=O)[C@H](CC(=O)O)NC1=O (stereo partly shown) [compound 25] (H-SKCPLD[Thr(3ξ)]PY; linker 3-C via X9) | 552 nM |
| CC(C)C[C@@H]1NC(=O)[C@@H]2CCCN2C(=O)[C@@H]2CSCc3cc(cc(c3)OCCCCCCO/N=C/C(=O)N[C@@H](CCCCN)C(=O)N2)CSC[C@@H](C(N)=O)NC(=O)[C@H](CCC(=O)O)NC(=O)[C@H](CCC(N)=O)NC(=O)[C@@H]2CCCN2C(=O)[C@H]([C@@H](C)O)NC(=O)[C@H](CC(=O)O)NC1=O [compound 26, TSL6- SKCPLDTPQEC] (KCPLDTPQEC-NH2; linker N-2-10 via X3) | 602 nM |
| CCCC[C@@H]1NC(=O)[C@@H]2CCCN2C(=O)[C@@H]2CSCc3cc(cc(c3)OCCCCCCO/N=C/C(=O)N[C@@H](CCCNC(=N)N)C(=O)N2)CSC[C@@H](C(N)=O)NC(=O)[C@H](CCCCN)NC(=O)[C@H](C(C)C)NC(=O)[C@H](Cc2c[nH]c3ccccc23)NC(=O)[C@H]([C@@H](C)CC)NC(=O)[C@H](CC(=O)O)NC1=O [compound 27, TSL6- SRCP{Nle} DIWVKC] (RCP[Nle]DIWVKC-NH2; linker N-2-10 via X3) | 620 nM |
| CSCC[C@@H]1NC(=O)[C@@H]2CCCN2C(=O)[C@@H]2CSCc3cc(cc(c3)OCCCCCCO/N=C/C(=O)N[C@@H](CCC(N)=O)C(=O)N2)CSC[C@@H](C(N)=O)NC(=O)[C@H]([C@@H](C)O)NC(=O)[C@@H]2CCCN2C(=O)[C@H](C(C)C)NC(=O)[C@H](CC(=O)O)NC1=O [compound 28, TSL6- SQCPMDVPTC] (QCPMDVPTC-NH2; linker N-2-9 via X3) | 672 nM |
| CSCC[C@@H]1NC(=O)[C@H](CC(=O)O)NC(=O)[C@H](CC(C)C)NC(=O)[C@@H]2CCCN2C(=O)[C@@H]2CSCc3cc(cc(c3)OCCCCCCO/N=C/C(=O)N[C@@H](CCCCN)C(=O)N2)CSC[C@@H](C(N)=O)NC(=O)[C@H](CCC(=O)O)NC(=O)[C@H](Cc2ccc(O)cc2)NC(=O)[C@@H]2CCCN2C1=O [compound 29, TSL6- SKCPLDMPYEC] (KCPLDMPYEC-NH2; linker N-2-10 via X3) | 672 nM |
| CC(C)[C@@H]1NC(=O)[C@H](CC(=O)O)NC(=O)[C@H](CC(C)(C)C)NC(=O)[C@@H]2CCCN2C(=O)[C@@H]2CSCc3cc(cc(c3)OCCCCCCO/N=C/C(=O)N[C@@H](CCCNC(=N)N)C(=O)N2)CSC[C@@H](C(N)=O)NC(=O)[C@H](CCC(=O)O)NC(=O)[C@H](CCC(N)=O)NC(=O)[C@@H]2CCCN2C1=O [compound 30, TSL6- SRCP{tBuAla} DVPQEC] (RCP[tBuAla]DVPQEC-NH2; linker N-2-10 via X3) | 690 nM |
| CC(C)C[C@@H]1NC(=O)[C@@H]2CCCN2C(=O)[C@@H]2CSCc3cc(cc(c3)OCCCCCCO/N=C/C(=O)N[C@@H](CCCCN)C(=O)N2)CSC[C@@H](C(N)=O)NC(=O)[C@H](CO)NC(=O)[C@@H]2CCCN2C(=O)[C@H](C(C)C)NC(=O)[C@H](CC(=O)O)NC1=O [compound 31, TSL6- SKCPLDVPSC] (KCPLDVPSC-NH2; linker N-2-9 via X3) | 723 nM |
| CC(C)C[C@@H]1NC(=O)[C@@H]2CCCN2C(=O)[C@@H]2CSCc3cc(cc(c3)OCCCCCCO/N=C/C(=O)N[C@@H](CCCCN)C(=O)N2)CSC[C@@H](C(N)=O)NC(=O)[C@H](CCC(=O)O)NC(=O)[C@H]([C@@H](C)O)NC(=O)[C@@H]2CCCN2C(=O)[C@H]([C@@H](C)O)NC(=O)[C@H](CC(=O)O)NC1=O [compound 34, TSL6- SKCPLDTPTEC] (KCPLDTPTEC-NH2; linker N-2-10 via X3) | 748 nM |
| CC(C)C[C@@H]1NC(=O)[C@@H]2CCCN2C(=O)[C@@H]2CSCc3cc(cc(c3)OCCCCCCO/N=C/C(=O)N[C@@H](CCCCN)C(=O)N2)CSC[C@@H](C(N)=O)NC(=O)[C@H](CCC(=O)O)NC(=O)[C@H](C)NC(=O)[C@@H]2CCCN2C(=O)[C@H]([C@@H](C)O)NC(=O)[C@H](CC(=O)O)NC1=O [compound 35, TSL6- SKCPLDTPAEC] (KCPLDTPAEC-NH2; linker N-2-10 via X3) | 796 nM |
